Values of other authors as cited in patent US7196076B2, “Androgen receptor modulators and methods of use thereof” (Merck & Co., Inc., priority 2001, dated 2007).
Where a name gives a salt, the structure may show the parent alone.

Legend:
[1] = after 7 years of treatment
[2] = median of 22 months of treatment

Row | Molecule | increase in spinal BMD [1] [%] | reduction in nonvertebral fractures [2] [%] | reduction in spine fractures [2] [%]
1 | NCCCC(O)(P(=O)(O)O)P(=O)(O)O [alendronate, 4-amino-1-hydroxybutylidene-1,1-bisphosphonic acid monosodium salt, trihydrate] | 11 | – | –
2 | hPTH(1–34): human parathyroid hormone 1–34 fragment (SVSEIQLMHNLGKHLNSMERVEWLRKKLQDVHNF; Parathyroid hormone; UniProt P01270 32-65, looked up, fragment) | – | 54 | ≥ 65
